Data reported in PubChem BioAssay (NCI).
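Results reflect a 48-hour exposure of cells in 96-well plates to compound at five concentrations. TGI: concentration producing complete growth inhibition.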

How the values were obtained:
Assay in all cases: NCI anticancer screen, dose series, 48 h
[1] = system: TK-10 renal
[2] = system: HOP-18 NSCLC
[3] = system: RXF 393 renal
[4] = system: SK-OV-3 ovarian
[5] = system: NCI-H460 lung
[6] = system: A498 renal
[7] = system: ACHN renal
[8] = system: MALME-3M melanoma
[9] = system: HCT-116 colon
[10] = system: SK-MEL-5 melanoma
[11] = system: HCC-2998 colon
[12] = system: SNB-78 CNS
[13] = system: UACC-257 melanoma
[14] = system: SR leukemia
[15] = system: NCI-H522 lung
[16] = system: SNB-19 CNS
[17] = system: KM12 colon
[18] = system: RPMI-8226 leukemia
[19] = system: DLD-1 colon
[20] = system: A549 NSCLC
[21] = system: CCRF-CEM leukemia
[22] = system: KM20L2 colon
[23] = system: U251 CNS
[24] = system: RXF-631 renal
[25] = system: OVCAR-5 ovarian
[26] = system: SW-620 colon
[27] = system: DMS 273 small cell lung
[28] = system: HT29 colon
[29] = system: NCI-H23 lung
[30] = system: COLO 205 colon
[31] = system: SK-MEL-28 melanoma
[32] = system: CAKI-1 renal
[33] = system: SNB-75 CNS
[34] = system: SK-MEL-2 melanoma
[35] = system: LXFL 529 NSCLC
[36] = system: SF-268 CNS
[37] = system: HOP-62 NSCLC
[38] = system: SF-295 CNS
[39] = system: HL-60(TB) leukemia
[40] = system: DMS 114 small cell lung
[41] = system: LOX IMVI melanoma
[42] = system: HOP-92 NSCLC
[43] = system: M14 melanoma
[44] = system: SN12C renal
[45] = system: HCT-15 colon
[46] = system: NCI-H226 lung
[47] = system: OVCAR-4 ovarian
[48] = system: SF-539 CNS
[49] = system: 786-0 renal
[50] = system: IGROV1 ovarian
[51] = system: M19-MEL melanoma
[52] = system: K-562 leukemia
[53] = system: UO-31 renal
[54] = system: UACC-62 melanoma
[55] = system: EKVX NSCLC
[56] = system: OVCAR-8 ovarian
[57] = system: OVCAR-3 ovarian
[58] = system: MOLT-4 leukemia
[59] = system: XF 498 CNS

Measured: TGI

O=C(NC1C(O)C(O)C(CO)OC1n1cc(F)c(=O)[nH]c1=O)OCc1ccccc1 (stereo unspecified)
> 100 µM: [1] | [2] | [3] | [4] | [5] | [6] | [7] | [8] | [9] | [10] | [11] | [12] | [13] | [14] | [15] | [16] | [17] | [18] | [19] | [20] | [21] | [22] | [23] | [24] | [25] | [26] | [27] | [28] | [29] | [30] | [31] | [32] | [33] | [34] | [35] | [36] | [37] | [38] | [39] | [40] | [41] | [42] | [43] | [44] | [45] | [46] | [47]

O=c1[nH]ccc2c1ccn2C1CC(O)C(CO)O1 (stereo unspecified)
> 100 µM: [1] | [48] | [2] | [4] | [5] | [6] | [7] | [49] | [8] | [50] | [9] | [10] | [11] | [51] | [52] | [12] | [13] | [14] | [15] | [16] | [17] | [53] | [18] | [54] | [55] | [19] | [20] | [21] | [23] | [24] | [25] | [26] | [27] | [28] | [29] | [30] | [31] | [32] | [33] | [34] | [35] | [37] | [56] | [38] | [39] | [40] | [57] | [41] | [42] | [43] | [44] | [45] | [46] | [47] | [58]

O=C(CC1(O)C(=O)Nc2ccccc21)c1ccc2ccccc2c1 (stereo unspecified)
> 100 µM: [1] | [59] | [48] | [3] | [4] | [5] | [6] | [7] | [49] | [8] | [50] | [9] | [10] | [11] | [51] | [52] | [12] | [13] | [15] | [16] | [53] | [18] | [54] | [55] | [19] | [20] | [22] | [24] | [25] | [26] | [27] | [28] | [29] | [30] | [31] | [32] | [33] | [34] | [35] | [36] | [37] | [56] | [38] | [39] | [40] | [57] | [41] | [42] | [43] | [44] | [45] | [46] | [47] | [58]
